Experiments:
Assay type in all cases: binding
[1] = molecular target: T1, JAK1 (Homo sapiens, UniProt P23458); experiment: Probe-based (AX9989) kinase profiling in Jurkat lysate: JAK1; settings: read-out: JAK1 Inhibition % at indicated screening concentration; for inhibition at 10 µM: screening concentration 10 μM; for inhibition at 1 µM: screening concentration 1 μM
T1 construct: screened for activity against several kinases in Jurkat cells; endogenous in cells; host or cells: Jurkat cell lysate
T1 sequence (P23458 whole entry): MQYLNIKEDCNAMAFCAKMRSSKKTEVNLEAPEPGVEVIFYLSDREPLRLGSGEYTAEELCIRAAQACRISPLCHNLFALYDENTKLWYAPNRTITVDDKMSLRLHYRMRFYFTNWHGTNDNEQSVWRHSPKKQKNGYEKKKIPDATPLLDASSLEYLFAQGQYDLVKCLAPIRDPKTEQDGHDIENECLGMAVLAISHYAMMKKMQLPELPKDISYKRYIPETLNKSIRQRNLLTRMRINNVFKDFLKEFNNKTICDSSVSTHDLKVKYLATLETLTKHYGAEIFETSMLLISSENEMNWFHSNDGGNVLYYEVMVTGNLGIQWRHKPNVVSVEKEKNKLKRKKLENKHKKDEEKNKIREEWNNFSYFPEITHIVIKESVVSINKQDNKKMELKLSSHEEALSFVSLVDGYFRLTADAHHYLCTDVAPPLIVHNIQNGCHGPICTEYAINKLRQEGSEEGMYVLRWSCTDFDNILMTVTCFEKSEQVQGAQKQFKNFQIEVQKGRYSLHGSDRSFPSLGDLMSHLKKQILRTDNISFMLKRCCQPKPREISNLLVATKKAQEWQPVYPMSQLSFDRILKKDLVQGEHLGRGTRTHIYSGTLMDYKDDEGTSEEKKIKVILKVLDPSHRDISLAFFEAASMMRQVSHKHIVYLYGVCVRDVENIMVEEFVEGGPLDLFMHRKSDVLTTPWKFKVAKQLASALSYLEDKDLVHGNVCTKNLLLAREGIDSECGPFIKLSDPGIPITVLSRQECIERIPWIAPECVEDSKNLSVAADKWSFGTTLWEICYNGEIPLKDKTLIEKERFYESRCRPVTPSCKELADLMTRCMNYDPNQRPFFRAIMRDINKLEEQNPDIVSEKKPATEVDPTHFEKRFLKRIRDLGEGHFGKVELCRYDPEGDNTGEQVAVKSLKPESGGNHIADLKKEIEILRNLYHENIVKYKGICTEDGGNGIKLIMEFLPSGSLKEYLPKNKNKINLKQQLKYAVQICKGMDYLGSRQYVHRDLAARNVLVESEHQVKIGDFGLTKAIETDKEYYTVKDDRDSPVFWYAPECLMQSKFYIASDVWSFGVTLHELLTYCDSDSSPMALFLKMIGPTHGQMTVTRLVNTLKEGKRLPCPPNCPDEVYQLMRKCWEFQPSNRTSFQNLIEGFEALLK
Procedure: (§1) In this example, potency of the compounds as ERK5 inhibitors was assessed, and the compounds were screened for activity against several kinases in Jurkat cells.
(§2) Jurkat cell pellets were resuspended in four volumes of lysis buffer (50 mM HEPES pH 7.5, 150 mM NaCl, 0.1% Triton-X-100, 1% v/v phosphatase, inhibitor cocktail II [EMD/Calbiochem, #524625]), sonicated using a tip, sonicator, and Dounce homogenized. Lysate was cleared by centrifugation, at 16,000 g for 15 min., was gel filtered (BioRad 10DG) and MnCl2 was then added to a final concentration of 20 mM before treatment with the test compound and probe labeling. […] All compound treatments were performed at room temperature.
(§3) Acyl phosphate ATP probe (AX9989) labeling reactions were performed at room temperature with a final probe concentration of 5 μM after a 15 min pre-incubation of lysate with a test compound. All reactions were performed in duplicate, using 445 μl/sample at 5 mg/ml. Probe-labeled lysates were denatured and reduced (6 M urea, 10 mM DTT, 65° C., 15 min), alkylated (40 mM iodoacetamide, 37° C., 30 min, and gel filtered (Sephadex G25) into 10 mM ammonium bicarbonate, 2 M urea, 5 mM methionine. The desalted protein mixture was digested with trypsin (0.015 mg/ml) for 1 hr at 37° C., and desthiobiotinylated peptides were captured using a […] high-capacity streptavidin resin (Thermo Scientific). Captured peptides were then washed extensively using 150 μl/wash with three different wash buffers: (A) 3 times with 1% triton, 0.5% tergitol, 1 mM EDTA in PBS; (B) 18 times with PBS; and (C) 8 times with HPLC grade water. Peptides were eluted from the streptavidin beads using two 35-μL washes of a 50% CH3CN/water mixture containing 0.1% TFA at room temperature.
(§4) Kinase active site peptides were identified and quantified using LC/MS. Percent inhibition was calculated as the normalized decrease in the ESI-MS fragment intensities of probe-labeled peptides in samples incubated with the test compound compared to those without.

[2] = system: AurB or AurC; experiment: Probe-based (AX9989) kinase profiling in Jurkat lysate: AurB or AurC
Procedure: as §1, §2, §3, §4

[3] = molecular target: T2, AurA (Homo sapiens, UniProt O14965); experiment: Probe-based (AX9989) kinase profiling in Jurkat lysate: AurA; settings: read-out: AurA Inhibition % at indicated screening concentration; for inhibition at 10 µM: screening concentration 10 μM; for inhibition at 1 µM: screening concentration 1 μM
T2 construct: screened for activity against several kinases in Jurkat cells; endogenous in cells; host or cells: Jurkat cell lysate
T2 sequence (O14965 1-403): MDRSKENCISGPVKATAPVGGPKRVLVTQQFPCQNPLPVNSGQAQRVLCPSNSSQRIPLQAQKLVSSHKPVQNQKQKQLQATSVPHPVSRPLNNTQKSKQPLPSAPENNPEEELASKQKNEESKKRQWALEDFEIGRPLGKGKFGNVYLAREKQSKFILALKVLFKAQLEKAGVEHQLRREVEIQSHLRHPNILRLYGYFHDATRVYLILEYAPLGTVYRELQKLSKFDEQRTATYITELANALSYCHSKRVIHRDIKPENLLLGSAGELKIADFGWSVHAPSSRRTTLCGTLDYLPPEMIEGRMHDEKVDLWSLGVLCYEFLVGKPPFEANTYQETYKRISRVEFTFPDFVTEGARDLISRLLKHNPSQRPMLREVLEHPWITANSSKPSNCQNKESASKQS
Procedure: as §1, §2, §3, §4

[4] = molecular target: T3, TAO2 (Homo sapiens, UniProt Q9UL54); experiment: Probe-based (AX9989) kinase profiling in Jurkat lysate: TAO2; settings: read-out: TAO2 Inhibition % at indicated screening concentration; for inhibition at 10 µM: screening concentration 10 μM; for inhibition at 1 µM: screening concentration 1 μM
T3 construct: screened for activity against several kinases in Jurkat cells; endogenous in cells; host or cells: Jurkat cell lysate
T3 sequence (Q9UL54 1-1235): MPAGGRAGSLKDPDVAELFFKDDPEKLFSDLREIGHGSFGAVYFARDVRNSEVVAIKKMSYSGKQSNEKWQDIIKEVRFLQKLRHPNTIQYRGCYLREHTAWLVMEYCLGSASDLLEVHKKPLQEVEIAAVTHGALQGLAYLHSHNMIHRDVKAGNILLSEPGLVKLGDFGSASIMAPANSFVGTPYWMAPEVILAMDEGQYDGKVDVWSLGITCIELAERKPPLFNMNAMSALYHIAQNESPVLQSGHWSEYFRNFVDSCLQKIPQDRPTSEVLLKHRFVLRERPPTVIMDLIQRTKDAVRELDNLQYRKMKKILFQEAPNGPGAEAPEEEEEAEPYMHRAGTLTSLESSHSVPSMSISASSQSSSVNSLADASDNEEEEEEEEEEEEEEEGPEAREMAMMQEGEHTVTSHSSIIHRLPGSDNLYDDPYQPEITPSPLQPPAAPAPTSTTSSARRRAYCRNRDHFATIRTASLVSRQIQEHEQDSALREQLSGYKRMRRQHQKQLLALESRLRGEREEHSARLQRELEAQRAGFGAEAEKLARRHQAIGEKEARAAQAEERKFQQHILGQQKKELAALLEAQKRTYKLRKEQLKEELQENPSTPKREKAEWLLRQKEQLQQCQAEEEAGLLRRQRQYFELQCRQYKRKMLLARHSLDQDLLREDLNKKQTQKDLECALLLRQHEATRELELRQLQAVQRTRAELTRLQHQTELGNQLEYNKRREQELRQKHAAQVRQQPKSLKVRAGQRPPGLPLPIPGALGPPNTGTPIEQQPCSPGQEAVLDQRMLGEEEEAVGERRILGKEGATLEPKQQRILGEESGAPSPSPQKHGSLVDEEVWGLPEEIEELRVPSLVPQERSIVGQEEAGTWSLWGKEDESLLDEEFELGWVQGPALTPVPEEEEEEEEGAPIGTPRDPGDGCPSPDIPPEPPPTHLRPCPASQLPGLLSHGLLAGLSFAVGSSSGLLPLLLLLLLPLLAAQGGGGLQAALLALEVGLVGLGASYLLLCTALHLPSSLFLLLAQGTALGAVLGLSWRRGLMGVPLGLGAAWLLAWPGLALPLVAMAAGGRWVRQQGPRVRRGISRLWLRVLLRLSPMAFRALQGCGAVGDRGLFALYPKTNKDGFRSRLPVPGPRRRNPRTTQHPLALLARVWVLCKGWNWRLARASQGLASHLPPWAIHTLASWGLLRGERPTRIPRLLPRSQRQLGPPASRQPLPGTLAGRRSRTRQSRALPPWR
Procedure: as §1, §2, §3, §4

[5] = system: AMPKa1 or AMPKa2; experiment: Probe-based (AX9989) kinase profiling in Jurkat lysate: AMPKa1 or AMPKa2
Procedure: as §1, §2, §3, §4

[6] = molecular target: T4, ACK (Homo sapiens, UniProt Q07912); experiment: Probe-based (AX9989) kinase profiling in Jurkat lysate: ACK; settings: read-out: ACK Inhibition % at indicated screening concentration; for inhibition at 10 µM: screening concentration 10 μM; for inhibition at 1 µM: screening concentration 1 μM
T4 construct: screened for activity against several kinases in Jurkat cells; endogenous in cells; host or cells: Jurkat cell lysate
T4 sequence (Q07912 whole entry): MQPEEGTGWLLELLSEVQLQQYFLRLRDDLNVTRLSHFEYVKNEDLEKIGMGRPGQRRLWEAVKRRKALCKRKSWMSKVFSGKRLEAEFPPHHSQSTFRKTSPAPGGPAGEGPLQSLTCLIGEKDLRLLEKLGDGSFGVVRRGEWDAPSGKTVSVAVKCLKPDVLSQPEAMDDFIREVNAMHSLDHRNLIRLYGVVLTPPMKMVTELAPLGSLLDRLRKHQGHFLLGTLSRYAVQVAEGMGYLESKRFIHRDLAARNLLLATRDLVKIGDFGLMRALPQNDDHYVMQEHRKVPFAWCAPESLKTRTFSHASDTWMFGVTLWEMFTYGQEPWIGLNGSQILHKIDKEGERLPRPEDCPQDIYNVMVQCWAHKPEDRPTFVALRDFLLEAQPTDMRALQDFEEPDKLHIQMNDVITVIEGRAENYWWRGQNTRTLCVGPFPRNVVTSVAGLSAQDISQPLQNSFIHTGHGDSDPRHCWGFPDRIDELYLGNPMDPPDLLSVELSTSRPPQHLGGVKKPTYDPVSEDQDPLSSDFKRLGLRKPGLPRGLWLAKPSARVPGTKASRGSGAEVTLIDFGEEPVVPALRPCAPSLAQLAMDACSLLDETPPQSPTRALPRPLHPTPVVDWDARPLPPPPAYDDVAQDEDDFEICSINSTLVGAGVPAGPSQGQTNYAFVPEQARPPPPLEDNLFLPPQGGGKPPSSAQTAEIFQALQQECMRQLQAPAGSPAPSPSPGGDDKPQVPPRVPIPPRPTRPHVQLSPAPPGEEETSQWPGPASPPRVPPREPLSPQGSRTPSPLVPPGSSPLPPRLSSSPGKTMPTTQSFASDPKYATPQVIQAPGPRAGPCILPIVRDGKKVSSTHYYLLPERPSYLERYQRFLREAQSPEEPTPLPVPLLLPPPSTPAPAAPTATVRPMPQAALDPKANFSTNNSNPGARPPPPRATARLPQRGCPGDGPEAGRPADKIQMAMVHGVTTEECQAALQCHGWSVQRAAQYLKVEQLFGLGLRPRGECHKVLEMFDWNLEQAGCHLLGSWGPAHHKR
Procedure: as §1, §2, §3, §4

[7] = molecular target: T5, ERK5 (Homo sapiens, UniProt Q13164); experiment: Probe-based (AX9989 acyl phosphate ATP probe) kinase profiling in Jurkat lysate: ERK5; settings: for IC50: calculated from percent inhibition and screening concentration, Jurkat lysate, AX9989 probe; for inhibition at 10 µM: screening concentration 10 μM; for inhibition at 10 µM / inhibition at 1 µM: read-out: ERK5 Inhibition % at indicated screening concentration; for inhibition at 1 µM: screening concentration 1 μM
T5 construct: screened for activity against several kinases in Jurkat cells; endogenous in cells; host or cells: Jurkat cell lysate
T5 sequence (Q13164 whole entry): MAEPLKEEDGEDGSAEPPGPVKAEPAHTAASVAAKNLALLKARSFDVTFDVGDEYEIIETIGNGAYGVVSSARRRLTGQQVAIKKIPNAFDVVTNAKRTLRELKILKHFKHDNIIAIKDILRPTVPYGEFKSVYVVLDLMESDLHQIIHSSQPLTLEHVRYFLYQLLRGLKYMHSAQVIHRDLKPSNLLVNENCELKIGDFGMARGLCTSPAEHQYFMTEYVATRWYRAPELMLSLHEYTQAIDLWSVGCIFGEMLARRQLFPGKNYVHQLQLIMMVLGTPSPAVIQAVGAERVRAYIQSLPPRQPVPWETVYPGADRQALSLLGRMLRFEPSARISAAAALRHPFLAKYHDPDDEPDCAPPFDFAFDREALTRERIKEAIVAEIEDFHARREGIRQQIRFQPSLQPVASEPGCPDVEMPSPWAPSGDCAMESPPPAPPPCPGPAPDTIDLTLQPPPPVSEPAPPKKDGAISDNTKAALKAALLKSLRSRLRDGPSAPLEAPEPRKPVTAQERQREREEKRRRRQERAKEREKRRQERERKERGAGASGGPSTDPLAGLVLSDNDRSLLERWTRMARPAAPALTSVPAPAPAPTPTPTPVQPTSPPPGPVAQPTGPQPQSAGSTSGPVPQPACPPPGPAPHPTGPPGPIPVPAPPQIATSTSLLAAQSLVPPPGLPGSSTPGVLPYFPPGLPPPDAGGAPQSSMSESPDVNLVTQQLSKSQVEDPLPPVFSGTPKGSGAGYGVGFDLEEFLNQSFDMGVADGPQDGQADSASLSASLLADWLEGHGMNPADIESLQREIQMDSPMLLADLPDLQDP
Procedure: as §1, §2, §3, §4
ERK5 IC50 values were calculated from the percent inhibition and the screening concentration.

[8] = system: ABL or ARG; experiment: Probe-based (AX9989) kinase profiling in Jurkat lysate: ABL or ARG
Procedure: as §1, §2, §3, §4

Structure (SMILES) | inhibition at 10 µM [1] | AurB or AurC Inhibition % at indicated screening concentration ([2]; screening concentration 10 μM) | inhibition at 10 µM [3] | inhibition at 10 µM [4] | AMPKa1 or AMPKa2 Inhibition % at indicated screening concentration ([5]; screening concentration 10 μM) | inhibition at 10 µM [6] | IC50 [7] | inhibition at 10 µM [7] | ABL or ARG Inhibition % at indicated screening concentration ([8]; screening concentration 10 μM) | inhibition at 1 µM [1] | AurB or AurC Inhibition % at indicated screening concentration ([2]; screening concentration 1 μM) | inhibition at 1 µM [3] | inhibition at 1 µM [4] | AMPKa1 or AMPKa2 Inhibition % at indicated screening concentration ([5]; screening concentration 1 μM) | inhibition at 1 µM [6] | inhibition at 1 µM [7] | ABL or ARG Inhibition % at indicated screening concentration ([8]; screening concentration 1 μM)
CCOc1cc(C(=O)N2CCOCC2)ccc1Nc1cc2c(cn1)N(C)C(=O)c1ccccc1[S+]2[O-] (stereo not drawn) [Compound T83, 3-((2-ethoxy-4-(morpholine-4-carbonyl)phenyl)amino)-11-methylbenzo[f]pyrido[4,3-b][1,4]thiazepin-10(11H)-one 5-oxide] | ≤ 35% | E (E is ≦35%) | ≤ 35% | ≤ 35% | E (E is ≦35%) | ≤ 35% | > 500 nM | 75 to 90% | E (E is ≦35%) | – | – | – | – | – | – | – | –
CCOc1cc(C(=O)N2CCOCC2)ccc1Nc1cc2c(cn1)N(C)C(=O)c1ccccc1S2(=O)=O [Compound T84] | ≤ 35% | E (E is ≦35%) | ≤ 35% | ≤ 35% | E (E is ≦35%) | ≤ 35% | > 500 nM | 75 to 90% | E (E is ≦35%) | – | – | – | – | – | – | – | –
CN1C(=O)c2ccccc2N(S(C)(=O)=O)c2cc(N[C@H]3CC[C@H](O)CC3)ncc21 [Compound T86, 3-(((1r,4r)-4-hydroxycyclohexyl)amino)-11-methyl-5-(methylsulfonyl)-5H-benzo[e]pyrido[3,4-b][1,4]diazepin-10(11H)-one] | – | – | – | – | – | – | > 500 nM | – | – | ≤ 35% | E (E is ≦35%) | ≤ 35% | ≤ 35% | E (E is ≦35%) | ≤ 35% | 35 to 50% | E (E is ≦35%)
CCOc1cc(C(=O)N2CCN(C3CCN(C)CC3)CC2)ccc1Nc1cc2c(cn1)N(C)C(=O)c1ccccc1N2S(C)(=O)=O [Compound T87] | – | – | – | – | – | – | > 500 nM | – | – | ≤ 35% | E (E is ≦35%) | ≤ 35% | ≤ 35% | E (E is ≦35%) | ≤ 35% | 50 to 75% | E (E is ≦35%)
